This is an account of results in patent US7432226B2, “Herbicidally active composition” (Bayer CropScience GmbH, priority 2003, dated 2008).

Conditions in all cases: in vivo
One series concerns Corn, cultivar “Lorenzo”. Kind of series: Herbicidal post-emergence action, damage to crop plants: corn. The procedure: (§1) Herbicidal Post-emergence Action
(§2) Seeds of monocotyledonous and dicotyledonous weeds and of crop plants are placed in sandy loam soil in plastic pots, covered with soil and cultivated in a greenhouse under good growth conditions.
(§3) Three weeks after sowing, the test plants are treated at the 3-4-leaf stage.
(§4) Stated is the respective degree of damage to the crop plants and the reduction of the damage by the herbicide/safener combinations according to the invention in percent, compared with the herbicide applied alone.

Series [1] deals with Wheat, cultivar “Kanzler”. Kind of series: Herbicidal post-emergence action, damage to crop plants: wheat Kanzler. The procedure: as §1, §2, §3, §4
The test system of the next series is Barley, cultivar “Duett”. Kind of series: Herbicidal post-emergence action, damage to crop plants: barley Duett. The procedure:
as §1, §2, §3, §4

In series [2] the test system is Barley, cultivar “Baronesse”. Nature of the series: Herbicidal post-emergence action, damage to crop plants: barley Baronesse. The method, then: as §1, §2, §3, §4

Turning to `COC(=O)c1sccc1S(=O)(=O)NC(=O)Nc1nc(C)nc(OC)n1` [herbicide A2.1, thifensulfuron-methyl], the Degree of damage in the series on Corn, cultivar “Lorenzo” came to 20%; in series [1], 10%; with Barley, cultivar “Duett” it was 20%.
Regarding `COC(=O)c1ccccc1S(=O)(=O)NC(=O)Nc1nc(C)nc(OC)n1` [herbicide A1.1, metsulfuron-methyl], the Degree of damage in the series with Corn, cultivar “Lorenzo” is given as 50%; in series [1] it was 10%; in series [2], 10%.
Consider `COC(=O)c1ccccc1S(=O)(=O)NC(=O)N(C)c1nc(C)nc(OC)n1` [herbicide A3.1, tribenuron-methyl], for which the Degree of damage in the series on Corn, cultivar “Lorenzo” was 10%; in series [1] it was 20%.
Regarding `COc1nc(C)nc(NC(=O)NS(=O)(=O)c2ccccc2Cl)n1` [herbicide A4.1, chlorsulfuron], the Degree of damage stood at 70% in the series with Corn, cultivar “Lorenzo” and 10% in series [2].
